Results on two compounds are retold here after PMC3445516 (PLoS ONE, 2012).

pIC50: −log10 of the molar value.

Data set [1] concerns the target T1, ABL1 (Homo sapiens, UniProt P00519).
T1 construct: purchased Ambit Biosciences (KINOMEscan)
Kind of data set: Ambit kinase profiling, competition binding. The conditions noted are these: compound concentration 10 uM, read-out: Percent Competition. The source says: (§1) Supplement pone.0044653.s004.xls, sheet "Compound 122" | column: Percent Competition

Data set [2] concerns the target T2, ABL1(E255K) (Homo sapiens, UniProt P00519, E255K).
T2 construct: purchased Ambit Biosciences (KINOMEscan)
Kind of data set: Ambit kinase profiling, competition binding. The note with it: compound concentration 10 uM, read-out: Percent Competition.
Excerpt: as §1

Data set [3] deals with T3, ABL2 (Homo sapiens, UniProt P42684).
T3 construct: purchased Ambit Biosciences (KINOMEscan)
Kind of data set: Ambit kinase profiling, competition binding. The note with it: compound concentration 10 uM, read-out: Percent Competition.
Excerpt: as §1

For data set [4], the target named is T4, ANKK1 (Homo sapiens, UniProt Q8NFD2).
T4 construct: purchased Ambit Biosciences (KINOMEscan)
Kind of data set: Ambit kinase profiling, competition binding. The conditions noted are these: compound concentration 10 uM, read-out: Percent Competition.
Excerpt: as §1

In data set [5] the target is T5, CAMKK1 (Homo sapiens, UniProt Q8N5S9).
T5 construct: purchased Ambit Biosciences (KINOMEscan)
Kind of data set: Ambit kinase profiling, competition binding. The conditions noted are these: compound concentration 10 uM, read-out: Percent Competition.
Excerpt: as §1

The target in data set [6] is T6, CAMKK2 (Homo sapiens, UniProt Q96RR4).
T6 construct: purchased Ambit Biosciences (KINOMEscan)
Kind of data set: Ambit kinase profiling, competition binding. The note with it: compound concentration 10 uM, read-out: Percent Competition.
Excerpt: as §1

Data set [7] addresses T7, CDK9 (Homo sapiens, UniProt P50750).
T7 construct: purchased Ambit Biosciences (KINOMEscan)
Kind of data set: Ambit kinase profiling, competition binding. The conditions noted are these: compound concentration 10 uM, read-out: Percent Competition.
Excerpt: as §1

The target of data set [8] is T8, CHEK1 (Homo sapiens, UniProt O14757).
T8 construct: purchased Ambit Biosciences (KINOMEscan)
Kind of data set: Ambit kinase profiling, competition binding. The note with it: compound concentration 10 uM.
Excerpt: as §1

In data set [9] the target is T9, CHEK2 (Homo sapiens, UniProt O96017).
T9 construct: purchased Ambit Biosciences (KINOMEscan)
Kind of data set: Ambit kinase profiling, competition binding. The note with it: compound concentration 10 uM, read-out: Percent Competition.
Excerpt: as §1

Data set [10] concerns the target T10, DAPK3 (Homo sapiens, UniProt O43293).
T10 construct: purchased Ambit Biosciences (KINOMEscan)
Kind of data set: Ambit kinase profiling, competition binding. The note with it: compound concentration 10 uM, read-out: Percent Competition.
Excerpt: as §1

In data set [11] the target is T11, EPHA2 (Homo sapiens, UniProt P29317).
T11 construct: purchased Ambit Biosciences (KINOMEscan)
Kind of data set: Ambit kinase profiling, competition binding. The note with it: compound concentration 10 uM, read-out: Percent Competition.
Excerpt: as §1

Data set [12] has as its target T12, FGFR3(G697C) (Homo sapiens, UniProt P22607, G697C).
T12 construct: purchased Ambit Biosciences (KINOMEscan)
Kind of data set: Ambit kinase profiling, competition binding. The conditions noted are these: compound concentration 10 uM, read-out: Percent Competition.
Excerpt: as §1

Data set [13] deals with T13, FLT1 (Homo sapiens, UniProt P17948).
T13 construct: purchased Ambit Biosciences (KINOMEscan)
Kind of data set: Ambit kinase profiling, competition binding. The note with it: compound concentration 10 uM, read-out: Percent Competition.
Excerpt: as §1

Data set [14] concerns the target T14, FLT3(D835H) (Homo sapiens, UniProt P36888, D835H).
T14 construct: purchased Ambit Biosciences (KINOMEscan)
Kind of data set: Ambit kinase profiling, competition binding. The conditions noted are these: compound concentration 10 uM, read-out: Percent Competition.
Excerpt: as §1

For data set [15], the target named is T15, FLT3(N841I) (Homo sapiens, UniProt P36888, N841I).
T15 construct: purchased Ambit Biosciences (KINOMEscan)
Kind of data set: Ambit kinase profiling, competition binding. The conditions noted are these: compound concentration 10 uM, read-out: Percent Competition.
Excerpt: as §1

The target of data set [16] is T16, INSR (Homo sapiens, UniProt P06213).
T16 construct: purchased Ambit Biosciences (KINOMEscan)
Kind of data set: Ambit kinase profiling, competition binding. The note with it: compound concentration 10 uM, read-out: Percent Competition.
Excerpt: as §1

In data set [17] the target is T17, KIT(V559D,T670I) (Homo sapiens, UniProt P10721, T670I/V559D).
T17 construct: purchased Ambit Biosciences (KINOMEscan)
Kind of data set: Ambit kinase profiling, competition binding. The note with it: compound concentration 10 uM, read-out: Percent Competition.
Excerpt: as §1

The target in data set [18] is T18, MEK2 (Homo sapiens, UniProt P36507).
T18 construct: purchased Ambit Biosciences (KINOMEscan)
Kind of data set: Ambit kinase profiling, competition binding. The conditions noted are these: compound concentration 10 uM, read-out: Percent Competition.
Excerpt: as §1

In data set [19] the target is T19, MST1R (Homo sapiens, UniProt Q04912).
T19 construct: purchased Ambit Biosciences (KINOMEscan)
Kind of data set: Ambit kinase profiling, competition binding. The note with it: compound concentration 10 uM, read-out: Percent Competition.
Excerpt: as §1

The target of data set [20] is T20, NEK9 (Homo sapiens, UniProt Q8TD19).
T20 construct: purchased Ambit Biosciences (KINOMEscan)
Kind of data set: Ambit kinase profiling, competition binding. The conditions noted are these: compound concentration 10 uM, read-out: Percent Competition.
Excerpt: as §1

For data set [21], the target named is T21, PFTK1 (Homo sapiens, UniProt O94921).
T21 construct: purchased Ambit Biosciences (KINOMEscan)
Kind of data set: Ambit kinase profiling, competition binding. The conditions noted are these: compound concentration 10 uM.
Excerpt: as §1

In data set [22] the target is T22, PHKG1 (Homo sapiens, UniProt Q16816).
T22 construct: purchased Ambit Biosciences (KINOMEscan)
Kind of data set: Ambit kinase profiling, competition binding. The note with it: compound concentration 10 uM, read-out: Percent Competition.
Excerpt: as §1

Data set [23] has as its target T23, PIP5K2B (Homo sapiens, UniProt P78356).
T23 construct: purchased Ambit Biosciences (KINOMEscan)
Kind of data set: Ambit kinase profiling, competition binding. The conditions noted are these: compound concentration 10 uM, read-out: Percent Competition.
Excerpt: as §1

The target in data set [24] is T24, RPS6KA1(Kin.Dom.1-N-terminal) (Homo sapiens, UniProt Q15418).
T24 construct: RPS6KA1(Kin.Dom.1-N-terminal); purchased Ambit Biosciences (KINOMEscan)
Kind of data set: Ambit kinase profiling, competition binding. The note with it: compound concentration 10 uM, read-out: Percent Competition.
Excerpt: as §1

For data set [25], the target named is T25, RPS6KA4(Kin.Dom.2-C-terminal) (Homo sapiens, UniProt O75676).
T25 construct: RPS6KA4(Kin.Dom.2-C-terminal); purchased Ambit Biosciences (KINOMEscan)
Kind of data set: Ambit kinase profiling, competition binding. The conditions noted are these: compound concentration 10 uM, read-out: Percent Competition.
Excerpt: as §1

In data set [26] the target is T26, RPS6KA5(Kin.Dom.2-C-terminal) (Homo sapiens, UniProt O75582).
T26 construct: RPS6KA5(Kin.Dom.2-C-terminal); purchased Ambit Biosciences (KINOMEscan)
Kind of data set: Ambit kinase profiling, competition binding. The conditions noted are these: compound concentration 10 uM, read-out: Percent Competition.
Excerpt: as §1

The target in data set [27] is T27, STK33 (Homo sapiens, UniProt Q9BYT3).
T27 construct: purchased Ambit Biosciences (KINOMEscan)
Kind of data set: Ambit kinase profiling, competition binding. The conditions noted are these: compound concentration 10 uM, read-out: Percent Competition.
Excerpt: as §1

The target in data set [28] is T28, ULK2 (Homo sapiens, UniProt Q8IYT8).
T28 construct: purchased Ambit Biosciences (KINOMEscan)
Kind of data set: Ambit kinase profiling, competition binding. The conditions noted are these: compound concentration 10 uM, read-out: Percent Competition.
Excerpt: as §1

The target of data set [29] is T29, ZAP70 (Homo sapiens, UniProt P43403).
T29 construct: purchased Ambit Biosciences (KINOMEscan)
Kind of data set: Ambit kinase profiling, competition binding. The conditions noted are these: compound concentration 10 uM, read-out: Percent Competition.
Excerpt: as §1

Data set [30] relates to FLT3(ITD). Kind of data set: Ambit kinase profiling, competition binding. On the set-up: species or system human. The conditions noted are these: compound concentration 10 uM.
Excerpt: as §1

For data set [31], the target named is T30, p38α (Homo sapiens, UniProt Q16539). The note with it: 10 and 100 nM. On the procedure: Phosphorylation of 3.5 µg of p38 substrate was detected in a reaction having 1 µCi [γ-^32P] ATP (Perkin Elmer Life Sciences), 50 µM ATP, 50 ng active recombinant p38 in 50 µL kinase buffer containing 25 mM Tris-HCl, pH 7.5, 10 mM MgCl2, 5 mM β-glycerophosphate, 0.1 mM Na3VO4 and 2 mM DTT. The reaction was incubated at 30°C for 10 minutes and 25 µL of the reaction was spotted on Whatman P81 filter paper. The filter paper was washed 3 times in 0.5% phosphoric acid, air dried and counted using Beckman LS6500 multipurpose scintillation counter. Percent p38 inhibition was graphed using GraphPad Prism software 5.0.

In data set [32] the target is T30, p38α. Details: method as in PMID 14561090. The conditions noted are these: read-out: in vitro IC50 for p38α; cited from earlier work.
For data set [33], the system named is LPS-stimulated TNFα synthesis. Details: method as in PMID 14561090. The note with it: acute rat model of LPS-stimulated TNFα synthesis; cited from earlier work.
On the set-up of data set [34]: method as in PMID 14561090. The conditions noted are these: cited from earlier work.

T30 sequence (Q16539 whole entry): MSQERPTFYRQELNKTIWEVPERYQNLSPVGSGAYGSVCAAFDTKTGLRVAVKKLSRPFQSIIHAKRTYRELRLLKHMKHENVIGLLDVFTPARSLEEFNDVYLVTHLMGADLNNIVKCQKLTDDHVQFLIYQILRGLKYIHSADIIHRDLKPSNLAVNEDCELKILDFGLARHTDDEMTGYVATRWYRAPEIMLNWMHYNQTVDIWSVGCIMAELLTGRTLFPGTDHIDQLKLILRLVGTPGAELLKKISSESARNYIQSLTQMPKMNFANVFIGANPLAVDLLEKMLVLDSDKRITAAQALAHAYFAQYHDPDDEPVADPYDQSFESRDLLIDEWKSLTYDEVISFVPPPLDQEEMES
T6 sequence (Q96RR4 whole entry): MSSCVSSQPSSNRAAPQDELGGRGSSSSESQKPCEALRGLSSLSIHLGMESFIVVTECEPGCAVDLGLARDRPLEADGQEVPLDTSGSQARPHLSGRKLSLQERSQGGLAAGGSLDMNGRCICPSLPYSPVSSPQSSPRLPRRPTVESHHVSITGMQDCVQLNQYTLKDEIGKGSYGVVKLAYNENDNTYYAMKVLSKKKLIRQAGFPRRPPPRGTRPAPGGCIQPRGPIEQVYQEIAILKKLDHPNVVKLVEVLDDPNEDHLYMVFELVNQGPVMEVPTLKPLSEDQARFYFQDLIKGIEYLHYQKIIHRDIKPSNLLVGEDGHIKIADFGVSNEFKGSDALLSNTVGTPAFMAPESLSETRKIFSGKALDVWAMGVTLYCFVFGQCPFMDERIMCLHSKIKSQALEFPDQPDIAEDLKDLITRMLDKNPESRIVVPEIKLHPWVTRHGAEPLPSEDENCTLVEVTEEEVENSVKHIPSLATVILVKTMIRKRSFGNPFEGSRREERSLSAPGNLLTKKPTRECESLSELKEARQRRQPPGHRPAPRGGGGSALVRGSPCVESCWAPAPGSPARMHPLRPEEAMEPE
T3 sequence (P42684 whole entry): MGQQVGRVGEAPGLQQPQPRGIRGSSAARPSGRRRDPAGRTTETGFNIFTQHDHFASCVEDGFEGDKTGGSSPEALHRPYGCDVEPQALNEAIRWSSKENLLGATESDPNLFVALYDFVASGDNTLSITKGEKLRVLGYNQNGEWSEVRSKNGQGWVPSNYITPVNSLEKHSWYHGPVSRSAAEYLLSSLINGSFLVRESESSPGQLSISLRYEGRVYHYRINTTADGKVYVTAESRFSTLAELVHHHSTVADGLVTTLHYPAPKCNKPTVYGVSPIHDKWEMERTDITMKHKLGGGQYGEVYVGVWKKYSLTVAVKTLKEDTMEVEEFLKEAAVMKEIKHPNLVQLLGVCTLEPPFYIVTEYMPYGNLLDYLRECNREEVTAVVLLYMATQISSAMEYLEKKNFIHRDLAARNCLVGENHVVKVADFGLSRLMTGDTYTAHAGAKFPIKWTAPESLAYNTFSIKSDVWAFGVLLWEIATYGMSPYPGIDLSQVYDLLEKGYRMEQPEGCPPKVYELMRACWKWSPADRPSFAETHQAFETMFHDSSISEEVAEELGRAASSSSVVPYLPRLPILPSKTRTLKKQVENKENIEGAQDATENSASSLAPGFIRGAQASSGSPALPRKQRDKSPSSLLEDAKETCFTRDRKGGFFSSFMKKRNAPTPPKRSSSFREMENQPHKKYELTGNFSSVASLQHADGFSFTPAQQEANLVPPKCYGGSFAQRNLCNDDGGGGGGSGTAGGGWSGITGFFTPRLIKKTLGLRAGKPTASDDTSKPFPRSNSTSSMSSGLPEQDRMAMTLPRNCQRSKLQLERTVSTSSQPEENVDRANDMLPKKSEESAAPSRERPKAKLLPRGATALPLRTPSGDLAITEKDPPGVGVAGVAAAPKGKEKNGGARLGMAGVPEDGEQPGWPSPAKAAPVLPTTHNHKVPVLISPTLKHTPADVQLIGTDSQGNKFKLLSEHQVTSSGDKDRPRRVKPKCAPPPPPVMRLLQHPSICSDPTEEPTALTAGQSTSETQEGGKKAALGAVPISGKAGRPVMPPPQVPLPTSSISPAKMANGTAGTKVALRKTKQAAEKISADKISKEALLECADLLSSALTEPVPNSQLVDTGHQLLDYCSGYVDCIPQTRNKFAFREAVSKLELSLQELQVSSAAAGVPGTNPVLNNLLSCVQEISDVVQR
T18 sequence (P36507 whole entry): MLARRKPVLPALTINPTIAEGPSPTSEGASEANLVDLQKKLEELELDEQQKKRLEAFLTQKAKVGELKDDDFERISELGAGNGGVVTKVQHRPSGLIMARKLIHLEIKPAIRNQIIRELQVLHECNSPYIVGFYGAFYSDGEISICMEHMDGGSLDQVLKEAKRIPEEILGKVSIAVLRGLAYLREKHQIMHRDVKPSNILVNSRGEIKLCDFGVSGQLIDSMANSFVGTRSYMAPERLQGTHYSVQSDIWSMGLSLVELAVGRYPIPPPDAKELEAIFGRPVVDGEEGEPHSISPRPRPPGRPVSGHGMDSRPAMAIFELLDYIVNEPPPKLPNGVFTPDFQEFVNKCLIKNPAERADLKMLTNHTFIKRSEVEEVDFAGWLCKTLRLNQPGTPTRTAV
T22 sequence (Q16816 whole entry): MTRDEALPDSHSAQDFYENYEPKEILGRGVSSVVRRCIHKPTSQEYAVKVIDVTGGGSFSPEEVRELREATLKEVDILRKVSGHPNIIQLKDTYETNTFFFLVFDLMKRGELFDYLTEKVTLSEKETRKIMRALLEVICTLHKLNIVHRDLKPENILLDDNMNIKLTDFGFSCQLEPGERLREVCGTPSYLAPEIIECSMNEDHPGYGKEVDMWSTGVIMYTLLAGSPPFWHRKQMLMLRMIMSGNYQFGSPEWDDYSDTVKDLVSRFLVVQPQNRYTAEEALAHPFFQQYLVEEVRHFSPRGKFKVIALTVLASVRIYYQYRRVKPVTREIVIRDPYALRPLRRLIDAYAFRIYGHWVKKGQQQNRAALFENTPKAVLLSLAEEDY
T5 sequence (Q8N5S9 whole entry): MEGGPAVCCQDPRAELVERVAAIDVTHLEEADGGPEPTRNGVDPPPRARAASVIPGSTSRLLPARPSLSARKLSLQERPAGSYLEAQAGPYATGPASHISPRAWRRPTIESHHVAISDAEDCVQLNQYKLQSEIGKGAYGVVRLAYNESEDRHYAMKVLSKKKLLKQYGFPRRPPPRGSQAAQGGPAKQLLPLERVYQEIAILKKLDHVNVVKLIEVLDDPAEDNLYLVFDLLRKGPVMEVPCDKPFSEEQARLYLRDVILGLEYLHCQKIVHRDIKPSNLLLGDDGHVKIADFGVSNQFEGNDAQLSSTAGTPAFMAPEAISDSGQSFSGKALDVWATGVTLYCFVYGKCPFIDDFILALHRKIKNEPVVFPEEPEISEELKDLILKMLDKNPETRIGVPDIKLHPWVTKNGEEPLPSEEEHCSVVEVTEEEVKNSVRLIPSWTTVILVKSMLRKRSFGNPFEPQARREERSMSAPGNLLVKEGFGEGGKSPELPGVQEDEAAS
T10 sequence (O43293 whole entry): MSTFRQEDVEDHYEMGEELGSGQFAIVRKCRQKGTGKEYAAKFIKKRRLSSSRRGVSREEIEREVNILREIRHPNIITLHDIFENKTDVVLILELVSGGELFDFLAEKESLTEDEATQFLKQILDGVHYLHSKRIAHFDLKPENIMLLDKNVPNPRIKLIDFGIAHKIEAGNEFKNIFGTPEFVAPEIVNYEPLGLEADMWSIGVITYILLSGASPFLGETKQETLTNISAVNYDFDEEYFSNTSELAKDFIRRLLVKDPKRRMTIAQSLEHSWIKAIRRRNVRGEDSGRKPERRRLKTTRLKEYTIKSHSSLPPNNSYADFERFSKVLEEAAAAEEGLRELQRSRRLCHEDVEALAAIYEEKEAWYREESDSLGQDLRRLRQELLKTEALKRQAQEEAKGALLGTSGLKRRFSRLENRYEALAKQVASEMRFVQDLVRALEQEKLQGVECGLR
T8 sequence (O14757 whole entry): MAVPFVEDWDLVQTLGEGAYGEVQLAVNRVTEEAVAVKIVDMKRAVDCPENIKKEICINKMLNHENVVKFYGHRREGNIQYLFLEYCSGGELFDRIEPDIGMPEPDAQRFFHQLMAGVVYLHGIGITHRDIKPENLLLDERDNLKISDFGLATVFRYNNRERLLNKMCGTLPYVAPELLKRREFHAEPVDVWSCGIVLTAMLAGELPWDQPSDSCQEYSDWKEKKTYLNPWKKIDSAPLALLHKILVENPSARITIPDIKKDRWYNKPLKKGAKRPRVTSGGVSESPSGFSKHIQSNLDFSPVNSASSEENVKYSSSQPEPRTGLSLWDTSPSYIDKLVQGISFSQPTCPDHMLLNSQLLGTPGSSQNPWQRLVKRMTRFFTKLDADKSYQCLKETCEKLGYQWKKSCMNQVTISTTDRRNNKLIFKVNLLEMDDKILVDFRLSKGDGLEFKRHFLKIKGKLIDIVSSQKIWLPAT
T24 sequence (Q15418 1-391 limits assumed): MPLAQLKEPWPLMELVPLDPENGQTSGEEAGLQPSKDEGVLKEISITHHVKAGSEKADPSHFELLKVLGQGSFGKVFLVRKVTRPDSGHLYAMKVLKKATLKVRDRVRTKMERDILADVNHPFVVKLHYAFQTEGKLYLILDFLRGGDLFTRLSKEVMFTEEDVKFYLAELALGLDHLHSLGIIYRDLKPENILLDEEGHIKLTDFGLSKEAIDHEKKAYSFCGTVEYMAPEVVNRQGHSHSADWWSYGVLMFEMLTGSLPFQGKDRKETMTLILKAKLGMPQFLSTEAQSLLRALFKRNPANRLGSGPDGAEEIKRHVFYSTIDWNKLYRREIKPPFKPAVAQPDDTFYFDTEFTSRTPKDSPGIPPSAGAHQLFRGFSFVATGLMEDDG

On to `Fc1ccc(-c2c(-c3ccncc3)[nH]c3nccnc23)cc1` [RO1155697-000-005], for which the inhibition at 10 µM in data set [1], in [2], in [3], in data set [4], in data set [5] and in data set [6] was less than 50% throughout. Besides, the inhibition at 10 µM in [7], in data set [9], in data set [10], in data set [11], in [12] and in data set [13] was less than 50% each time. For the same compound, the inhibition at 10 µM in data set [14], in [15], in [16], in [17], in [18] and in data set [19] was less than 50% each time. Further, the inhibition at 10 µM in data set [20], in data set [22], in [23], in data set [24], in data set [25] and in [26] was less than 50% each time. Moreover, the inhibition at 10 µM in data set [27], in data set [28] and in data set [29] was less than 50% each time. The “Percent Competition” value in data set [8], in [21] and in [30] was less than 50% throughout.
In the case of `CC(O)CNc1cc(-c2[nH]c3cccnc3c2-c2ccc(F)cc2)ccn1` (stereo not shown) [Compound 140], the “inhibition of p38α” value in [31] was “most potent”. The pIC50 (in general, −log10 of the IC50, conventionally taken in molar units) in data set [32] was 9.00. Moreover, in [33], the in vivo efficacy result is reported as “in vivo efficacy has been demonstrated”. The “pharmacokinetic (PK) parameters” value in [34] is recorded as “favorable pharmacokinetic (PK) parameters”.
